According to patent EP0237472A2, “An ameliorating agent for pulmonary fibrosis and the use thereof” (Zyma SA, priority 1986, dated 1987):

Columns and labels:
[1] = acute oral toxicity (LD50) to male mice; details: mouse, in vivo
[2] = tested on: female Sprague-Dawley rats; experiment: CCl4-induced lung fibrosis (lung collagen accumulation) in rats; format: in vivo
Protocol: The animals used were female Sprague-Dawley rats fed on a commercial diet (Hankkija Cy, Helsinki, Finland). Forty rats were divided into four groups of 10, the first serving as a control group. In order to investigate the effect of Compound 4 on lung collagen accumulation, the injury was induced by injecting carbon tetrachloride (CC14) intraperitoneally at doses of 0.1 ml/100 g body weight (diluted with an equal volume of paraffin oil) twice a week for 40 days. The third group received simultaneous doses of CCl4 and Compound 4. Compound 4 was suspended in arabic gum and given by gastric intubation at doses of 100 mg/kg body weight 5 times weekly for 40 days. The fourth group received only Compound 4. Two animals both in the CC14 group died during the experiment.
At the end of the experiment, the rats were anaesthetized with ether, weighed, and decapitated. The lungs were rapidly removed, weighed and the right one of them stored at -70°C until assayed. Tissue specimens for the determination of hydroxyproline and total protein were homogenized with an Ultra-Turrax homogenizer at 0°C in 0.5 M acetic acid (5 ml/g of tissue), dialyzed against 0.5 M acetic acid, and hydrolyzed in 6 M HC1 at 120°C overnight. Tissue hydroxyproline was assayed by the method of Kivirikko et al. and tissue total protein using the a-amino nitrogen method of Rubinstein and Pryce.
The left lung was fixed by slowly injecting a 4% formaldehyde and 1% glutaraldehyde solution into the main bronchus with the 1 ml syringe under magnifying lens control. Inflation of the lungs with fixative was continued until the pleura was smooth and the organ appeared to be filled. The bronchus was then left unclosed and the lungs were placed in the same solution until fixed. When the bronchus is left unclosed, the human lungs, at least, seem to assume a fairly constant volume during fixation, a little greater than the functional residual capacity. The lungs were then sliced sagittally and the slices embedded in paraffin. Sections were cut at 5 µm and stained with heamatoxylin-eosin, Pearl's iron, van Gieson's and Verhoeff's elastic stains.

[3] = CCl4 + Compound 4 (group M+I), CCl4 0.1 ml/100 g i.p. twice a week, Compound 4 100 mg/kg orally 5 times weekly, 40 days
[4] = Compound 4 alone (group M), 100 mg/kg by gastric intubation 5 times weekly for 40 days, no CCl4

For `COC(=O)C(C(=O)OC)=C1SC=CS1` [Compound 1], the LD50 [1] was > 6000 mg/kg.

`CCOC(=O)C(C(=O)OCC)=C1SC=CS1` [Compound 2] showed an LD50 [1] of 4900 mg/kg.

With `CCCOC(=O)C(C(=O)OCCC)=C1SC=CS1` [Compound 3] the LD50 [1] was > 6000 mg/kg.

For `CC(C)OC(=O)C(C(=O)OC(C)C)=C1SC=CS1` [Compound 4], the “Lung relative protein (mg/g of lung weight)” value [2, 3] was 20.61±2.05 mg/g of lung weight, the “Lung total protein (mg/lungs)” value [2, 3] was 40.07±6.05 mg/lungs and the “Lung weight/ body weight (%)” value [2, 3] was 0.89±0.17%. The “total hydroxyproline content of the lungs” value ([2]; CCl4 + Compound 4, 100 mg/kg orally, 40 days (Figure 1)) was “normalized the values”, the “foci of necrotic alveolar walls” value ([2]; CCl4 + Compound 4, histology) was “All the lungs showed some foci of necrotic alveolar walls” and the interstitial fibrosis ([2]; CCl4 + Compound 4 compared with CCl4-induced rats without Compound 4, histology) was “less interstitial fibrosis”. The “Lung relative protein (mg/g of lung weight)” value [2, 4] was 22.20±2.76 mg/g of lung weight, the “Lung total protein (mg/lungs)” value [2, 4] was 38.31±4.90 mg/lungs and the “Lung weight/ body weight (%)” value [2, 4] was 0.81±0.12%. For the same compound, the “lungs exhibiting a fairly normal alveolar pattern” value ([2]; rats which received CCl4 and Compound 4, histology) was “Five out of the nine”, the “lungs showing variable evidence of inflammatory reaction with minimal oedema” value ([2]; rats which received CCl4 and Compound 4, nine lungs, histology) was “four” and the “alveolar pattern in the lungs” value ([2]; ten rats which received Compound 4 alone, histology) was “normal”.

For `CCCCOC(=O)C(C(=O)OCCCC)=C1SC=CS1` [Compound 5], the LD50 [1] was > 6000 mg/kg.

`CC(C)COC(=O)C(C(=O)OCC(C)C)=C1SC=CS1` [Compound 6] showed an LD50 [1] of 4700 mg/kg.

For `CCOC(=O)C(C(=O)OC(C)C)=C1SC=CS1` [Compound 7], the LD50 [1] was 2700 mg/kg.

For `COC(=O)C(C(=O)OCC(C)C)=C1SC=CS1` [Compound 8], the LD50 [1] was 5800 mg/kg.
